Earlier results, collected in publication PMC4101043 (Antiviral research, 2014).
Where two headings read alike, the source gives them in different places.

Assays:
Wild-Type HIV-1 NL4-3 = details: MT-4 cells
UGTs = details: stated as known, no reference given
[1] = dosage and study duration differ
[2] = CPE inhibition, ref Okello et al., 2013a

SMILES | EC50 (Wild-Type HIV-1 NL4-3; ref Kobayashi et al., 2011) | UGT substrate status / dependence on UGTs for clearance (UGTs) | NOAEL ([1]; adult rats, ref Rhodes et al., 2012) | EC50 (Wild-Type HIV-1 NL4-3; [2]) | t1/2 (rats, po doses of 40–120 mg/kg, ref Merck, 2007) | Cl rate (rats, ref Laufer et al., 2009) | Oral bioavailability (F) (ref Merck, 2007) | NOAEL ([1]; ref Merck, 2007)
C[C@@H]1CCO[C@H]2Cn3cc(C(=O)NCc4ccc(F)cc4F)c(=O)c(O)c3C(=O)N12 [dolutegravir] | 0.71 nM | substrates and depend on UGTs for clearance | 50 mg/kg/day | – | – | – | – | –
COc1cc2c(cc1Cc1cccc(Cl)c1F)c(=O)c(C(=O)O)cn2[C@H](CO)C(C)C [elvitegravir] | – | substrates and depend on UGTs for clearance | – | 0.82 nM | – | – | – | –
Cc1nnc(C(=O)NC(C)(C)c2nc(C(=O)NCc3ccc(F)cc3)c(O)c(=O)n2C)o1 [raltegravir] | – | substrates and depend on UGTs for clearance | – | 6.54 nM | ≤ 1.6 h | 38.3 mL/min/kg | 32% | 120 mg/kg/day
